Data set [1] deals with MCF7. The data set is described as follows: Cytotoxicity against human MCF7 cells assessed as cell growth inhibition measured after 48 hrs by MTT assay. It is filed as functional, cell-based. The settings on record: MCF7, 48 h. Background: Tetrazolium assays rely on reduction of a dye to a coloured formazan, in cell work by metabolically active cells.
Data set [2] relates to HepG2. In words: Cytotoxicity against human HepG2 cells assessed as cell growth inhibition at 0.9 uM measured after 48 hrs by MTT assay relative to control. Also on record: scale not given: the % may be the effect or the level left. It is filed as functional.
A short description of data set [3]: Toxicity in iv dosed Swiss-Webster mouse assessed as lethal dose at 7.5 ml/kg, iv administered through tail vein injection by Litchfield-Wilcoxon method. It is filed as organism-based. The conditions noted are these: in vivo.
Data set [4] relates to SMMC-7721. In words: Cytotoxicity against human SMMC-7721 cells assessed as cell growth inhibition at 0.9 uM measured after 48 hrs by MTT assay relative to control. It is filed as functional. Also on record: scale not given: the % may be the effect or the level left.
The target of data set [5] is Polyunsaturated fatty acid 5-lipoxygenase (Homo sapiens) (UniProt P09917). In words: Inhibition of 5-LOX (unknown origin) using arachidonic acid as substrate at 100 uM preincubated for 5 mins followed by substrate addition measured after 15 mins by absorbance based analysis relative to control. The conditions noted are these: time 20.0 min.
Data set [6] concerns Mycobacterium tuberculosis. In words: Antimycobacterial activity against Mycobacterium tuberculosis H37Rv ATCC 27294 assessed as inhibition of bacterial growth by microplate alamar blue assay. It is filed as functional. In general terms: The colour change of resazurin is a common sign of viable cells or microbes.
Data set [7] addresses Prostaglandin G/H synthase 1 (Homo sapiens) (UniProt P23219). In words: Inhibition of COX-1 (unknown origin) using arachidonic acid as substrate at 100 uM preincubated for 5 mins followed by substrate addition measured after 15 mins by absorbance based analysis relative to control. The conditions noted are these: time 20.0 min.
Data set [8] has as its system Leishmania infantum. In words: Antileishmanial activity against Leishmania infantum PB75 assessed as cell growth inhibition measured after 72 hrs by MTT assay. The class given is functional.
Data set [9] in a line: Displacement of [3H]-naloxone from opiate receptor in rat cortical brain membrane assessed as inhibition constant incubated for 30 mins by liquid scintillation counter analysis. The class given is cell membranes. A general note: In a radioligand displacement assay an active substance lowers the binding of a labelled ligand.
For data set [10], the target named is Prostaglandin G/H synthase 2 (Homo sapiens) (UniProt P35354). The data set is described as follows: Inhibition of COX-2 (unknown origin) using arachidonic acid as substrate at 100 uM preincubated for 5 mins followed by substrate addition measured after 15 mins by absorbance based analysis relative to control. The conditions noted are these: time 20.0 min.
A short description of data set [11]: Inhibition of urease (unknown origin). Also on record: species or system Homo sapiens.
In data set [12] the target is T1, Xanthine dehydrogenase/oxidase (Homo sapiens, UniProt P47989). In words: Inhibition of xanthine oxidase (unknown origin).
Data set [13] is described as follows: Antioxidant activity assessed as DPPH radical scavenging activity. It is filed as functional.
In data set [14] the target is T1, Xanthine dehydrogenase/oxidase. In words: Inhibition of xanthine oxidase (unknown origin) at 10 uM using xanthine as substrate.
In data set [15] the test system is P388. In words: Cytotoxicity against mouse P388 cells assessed as effective dose. The class given is functional. The conditions noted are these: read-out: ED50 (the source's name).
The nature of data set [16]: Antagonist activity at serotonin receptor in rat aortic strips assessed as receptor mediated anti-serotoninergic activity. The settings on record: read-out: pA2 (converted).
The nature of data set [17]: Antagonist activity at alpha-adrenergic receptor in rat aortic strips assessed as receptor mediated adrenolytic activity. The conditions noted are these: read-out: pA2 (converted).
In data set [18] the test system is N2a. The data set is described as follows: Neuroprotective activity against paraquat induced mouse Neuro2a cells assessed as reduction in cell viability at 1 uM pretreated for 1 hr followed by paraquat addition measured after 24 hrs by MTT method relative to control. It is filed as functional. The settings on record: time 25 hrs.
Data set [19] has as its system Lactiplantibacillus plantarum. The data set is described as follows: Antibacterial activity against Lactobacillus plantarum assessed as inhibition of bacterial growth incubated for 18 to 24 hrs. It is filed as functional. The settings on record: time 18-24 hrs.
Data set [20] concerns Proteus mirabilis. In words: Antibacterial activity against Proteus mirabilis assessed as inhibition of bacterial growth incubated for 18 to 24 hrs. The class given is functional. The settings on record: time 18-24 hrs.
Data set [21] can be described thus: Antioxidant activity assessed as free radical scavenging activity incubated for 30 mins by DPPH assay. The class given is functional.
Data set [22] deals with Staphylococcus epidermidis. The data set is described as follows: Antibacterial activity against Staphylococcus epidermidis assessed as inhibition of bacterial growth incubated for 18 to 24 hrs. The class given is functional. The conditions noted are these: time 18-24 hrs.
The subject of data set [23] is Mycobacterium tuberculosis. In words: Antimycobacterial activity against Mycobacterium tuberculosis H37Rv assessed as inhibition of bacterial growth. It is filed as functional.
The subject of data set [24] is SAOS-2. In words: Cytotoxicity against human SAOS-2 cells assessed as cell growth inhibition incubated for 48 hrs by microplate reader based analysis. The class given is functional. The conditions noted are these: SAOS-2, 48 h.
A short description of data set [25]: Cytotoxicity against human SOSP-9607 cells assessed as cell growth inhibition incubated for 48 hrs by microplate reader based analysis. The class given is functional. The conditions noted are these: SOSP-9607, 48 h.
Data set [26] concerns MG-63. In words: Cytotoxicity against human MG-63 cells assessed as cell growth inhibition incubated for 48 hrs by microplate reader based analysis. It is filed as functional. The conditions noted are these: MG-63, 48 h.
Data set [27] has as its system U2OS. In words: Cytotoxicity against human U2OS cells assessed as cell growth inhibition incubated for 48 hrs by microplate reader based analysis. It is filed as functional.
Data set [28] concerns B16. In words: Cytotoxicity against mouse B16 cells assessed as cell growth inhibition measured after 72 hrs by MTT assay. It is filed as functional, cell-based. The conditions noted are these: B16, 72 h.
The nature of data set [29]: Cytotoxicity against multidrug resistant human VJ300 cells expressing P-gp assessed as cell growth inhibition measured after 72 hrs by MTT assay. It is filed as functional, cell-based. The settings on record: VJ-300, 72 h.
Data set [30] can be described thus: Toxicity in Artemia salina assessed as mortality at 10 ug/ml measured after 24 hrs by microscopic analysis. The conditions noted are these: at 10 µg/mL, read-out: Activity.

Molecules are shown by their SMILES. Values after ≈ are worked out from the molar mass of the structure shown. Bounds are passed on as bounds.

Chain of Prostaglandin G/H synthase 2 (Homo sapiens) (P35354 whole entry): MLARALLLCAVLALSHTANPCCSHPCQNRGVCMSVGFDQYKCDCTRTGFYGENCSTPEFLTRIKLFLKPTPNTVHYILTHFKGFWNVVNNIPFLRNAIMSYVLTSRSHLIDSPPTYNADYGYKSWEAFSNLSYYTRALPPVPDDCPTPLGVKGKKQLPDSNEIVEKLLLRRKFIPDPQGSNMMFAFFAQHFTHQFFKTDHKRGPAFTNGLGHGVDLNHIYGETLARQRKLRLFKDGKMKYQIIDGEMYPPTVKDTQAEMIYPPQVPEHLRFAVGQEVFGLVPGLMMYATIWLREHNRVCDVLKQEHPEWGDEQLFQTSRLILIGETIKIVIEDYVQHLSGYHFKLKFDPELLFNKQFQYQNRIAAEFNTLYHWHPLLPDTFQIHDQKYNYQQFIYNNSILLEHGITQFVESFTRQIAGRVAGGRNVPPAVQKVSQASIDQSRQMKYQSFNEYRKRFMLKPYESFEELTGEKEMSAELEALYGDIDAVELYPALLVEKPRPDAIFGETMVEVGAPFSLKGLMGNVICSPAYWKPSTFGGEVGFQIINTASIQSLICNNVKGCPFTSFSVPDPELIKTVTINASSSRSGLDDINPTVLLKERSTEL
Chain of Prostaglandin G/H synthase 1 (Homo sapiens) (P23219 whole entry): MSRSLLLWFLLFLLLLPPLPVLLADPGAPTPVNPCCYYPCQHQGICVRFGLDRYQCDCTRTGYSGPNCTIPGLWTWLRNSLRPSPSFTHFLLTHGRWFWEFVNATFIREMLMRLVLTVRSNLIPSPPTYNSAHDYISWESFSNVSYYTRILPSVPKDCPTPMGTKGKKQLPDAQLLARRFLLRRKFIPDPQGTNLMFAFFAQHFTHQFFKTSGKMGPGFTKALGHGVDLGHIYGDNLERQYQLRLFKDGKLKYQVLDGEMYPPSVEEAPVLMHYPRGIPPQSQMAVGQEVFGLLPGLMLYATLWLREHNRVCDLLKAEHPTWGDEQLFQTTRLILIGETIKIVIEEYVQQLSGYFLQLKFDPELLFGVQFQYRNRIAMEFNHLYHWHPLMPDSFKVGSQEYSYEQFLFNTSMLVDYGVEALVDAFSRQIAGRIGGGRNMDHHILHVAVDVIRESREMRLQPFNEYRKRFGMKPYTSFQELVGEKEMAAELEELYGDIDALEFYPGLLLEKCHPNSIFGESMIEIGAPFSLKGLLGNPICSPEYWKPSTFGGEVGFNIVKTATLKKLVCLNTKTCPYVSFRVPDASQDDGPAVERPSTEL
Chain of Polyunsaturated fatty acid 5-lipoxygenase (Homo sapiens) (P09917 whole entry): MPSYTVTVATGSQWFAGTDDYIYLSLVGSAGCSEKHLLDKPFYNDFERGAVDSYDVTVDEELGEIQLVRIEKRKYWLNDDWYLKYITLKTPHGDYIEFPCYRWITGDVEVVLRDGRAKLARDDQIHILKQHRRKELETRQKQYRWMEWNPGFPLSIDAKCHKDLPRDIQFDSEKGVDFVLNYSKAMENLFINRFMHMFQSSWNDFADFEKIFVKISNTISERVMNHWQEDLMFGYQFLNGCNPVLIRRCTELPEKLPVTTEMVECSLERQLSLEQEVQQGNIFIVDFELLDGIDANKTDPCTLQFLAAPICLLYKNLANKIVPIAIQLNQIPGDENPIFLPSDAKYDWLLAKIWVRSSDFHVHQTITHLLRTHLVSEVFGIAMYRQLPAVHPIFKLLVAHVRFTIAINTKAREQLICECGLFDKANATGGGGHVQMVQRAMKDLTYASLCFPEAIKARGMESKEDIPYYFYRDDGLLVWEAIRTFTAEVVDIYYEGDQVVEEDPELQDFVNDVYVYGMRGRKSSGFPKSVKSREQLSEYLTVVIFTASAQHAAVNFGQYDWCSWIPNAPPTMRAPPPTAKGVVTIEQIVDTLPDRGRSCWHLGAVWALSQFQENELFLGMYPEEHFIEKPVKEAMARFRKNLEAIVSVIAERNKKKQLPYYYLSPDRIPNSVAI
T1 sequence (P47989 whole entry): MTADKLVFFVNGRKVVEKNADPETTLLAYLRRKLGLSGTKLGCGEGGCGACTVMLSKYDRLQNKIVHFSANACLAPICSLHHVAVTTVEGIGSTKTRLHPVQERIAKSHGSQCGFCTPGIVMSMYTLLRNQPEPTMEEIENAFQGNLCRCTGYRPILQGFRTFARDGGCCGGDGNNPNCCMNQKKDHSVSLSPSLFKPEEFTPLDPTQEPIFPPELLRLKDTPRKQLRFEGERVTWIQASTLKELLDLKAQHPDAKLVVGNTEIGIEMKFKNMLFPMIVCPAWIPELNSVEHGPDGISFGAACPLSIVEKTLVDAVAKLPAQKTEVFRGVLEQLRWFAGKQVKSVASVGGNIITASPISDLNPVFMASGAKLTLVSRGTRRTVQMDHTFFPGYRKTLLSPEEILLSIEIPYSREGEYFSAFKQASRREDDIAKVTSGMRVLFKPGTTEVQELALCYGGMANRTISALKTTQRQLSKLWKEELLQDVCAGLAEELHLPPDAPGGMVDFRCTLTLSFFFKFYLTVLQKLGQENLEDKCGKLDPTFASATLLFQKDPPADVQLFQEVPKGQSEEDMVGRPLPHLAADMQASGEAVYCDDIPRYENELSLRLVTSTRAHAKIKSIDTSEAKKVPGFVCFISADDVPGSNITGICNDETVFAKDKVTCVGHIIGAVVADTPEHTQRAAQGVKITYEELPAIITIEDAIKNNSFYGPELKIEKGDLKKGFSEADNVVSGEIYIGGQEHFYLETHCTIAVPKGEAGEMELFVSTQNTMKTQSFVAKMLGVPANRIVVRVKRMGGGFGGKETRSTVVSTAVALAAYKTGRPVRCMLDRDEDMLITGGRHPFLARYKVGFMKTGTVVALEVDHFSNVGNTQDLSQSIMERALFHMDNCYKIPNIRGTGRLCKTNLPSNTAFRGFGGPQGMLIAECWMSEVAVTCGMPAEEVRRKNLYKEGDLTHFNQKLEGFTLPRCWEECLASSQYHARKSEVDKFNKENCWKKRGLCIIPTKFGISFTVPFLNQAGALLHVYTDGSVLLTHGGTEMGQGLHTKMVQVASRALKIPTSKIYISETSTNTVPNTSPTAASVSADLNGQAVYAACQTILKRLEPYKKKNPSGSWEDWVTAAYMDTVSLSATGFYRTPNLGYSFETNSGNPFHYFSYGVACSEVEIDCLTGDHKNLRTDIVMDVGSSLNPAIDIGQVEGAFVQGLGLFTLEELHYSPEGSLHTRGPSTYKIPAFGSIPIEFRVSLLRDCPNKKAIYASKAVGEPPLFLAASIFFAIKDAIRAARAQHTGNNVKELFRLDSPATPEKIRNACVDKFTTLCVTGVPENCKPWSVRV

For orientation: IC50 means the concentration that gives 50% inhibition. What is called LD50 is the dose at which mortality reaches 50%. On to `COc1cc2c(cc1OC)[C@@]13CCN4CC5=CCO[C@H]6CC(=O)N2[C@H]1[C@H]6[C@H]5C[C@H]43` [BRUCINE], for which, in [1], the IC50 was 279 µM. Moreover, the Activity in data set [2] is on record as 78.3%; in [4] it was 92.3%. The LD50 in data set [3] was 12 mg/kg.

What is called inhibition is the share of the control response that was lost under treatment. For orientation: MIC means the lowest concentration that inhibits growth of the organism. As usually defined, the GI50 is the concentration giving 50% growth inhibition. The term Ki denotes the dissociation constant of the complex between target and ligand, obtained from inhibition or displacement. As for `CC[C@H]1[C@@H]2CCN3CC[C@@]4(C(=C2C(=O)OC)Nc2ccccc24)[C@@H]13` [TUBOTAIWINE], the results for the inhibition in data set [5], in [7] and in data set [10] were 69.5%, 60.8% and 90.4%, respectively. In data set [6], the MIC was 100 µg/mL (≈ 308 µM). Besides, the GI50 in [8] is 5.9 µg/mL (≈ 18.2 µM). In addition, in data set [9], the Ki amounted to 1.65 µM.

Take `C/C=C1\CN2CC[C@@H]1[C@](CO)(C(=O)OC)c1[nH]c3ccccc3c1C2`: the inhibition came out at 60.8% in data set [5], 49.4% in [7] and 63.7% in [10]. The IC50 was 32.6 µM in [11], more than 100 µM in data set [12] and 24.5 µM in data set [13].

In the case of `C=C1c2[nH]c3ccccc3c2CN2CC[C@H]1/C(=C\C)C2` [APPARICINE], the Ki in [9] was 2.65 µM. This compound showed an IC50 in data set [14] of 0.65 µM. Besides, in data set [15], the EC50 stood at 3.8 µg/mL (≈ 14.4 µM).

On to `C/C=C1/CN2CC[C@@H]1[C@](CO)(C(=O)OC)c1[nH]c3ccccc3c1C2`, for which the MIC in [6] was more than 128 µg/mL.

With `COc1cc2c(cc1OC)-c1ccccc1CCN(C)C2`, the Kb in data set [16] was 0.102 µM; in data set [17], 0.107 µM.

For `CC1(C)/C=C\N2C(=O)C3(O)C(O)CCN3C(=O)[C@@H]2Cc2c1[nH]c1ccccc21` (stereo partly drawn), in data set [18], the Activity is reported as 38.6%.

Take `CN1CCc2ccccc2-c2cc(O)c(O)cc2C1`: the Kb was 3.02 µM in data set [16] and 0.02 µM in data set [17].

With `COc1cc([C@H]2Oc3ccc4[nH]cc5c4c3[C@H]2C(=O)NCC5)ccc1O`, the minimal inhibitory concentration (MIC) is 1 µg/mL (≈ 2.85 µM) in data set [19], 1 µg/mL (≈ 2.85 µM) in data set [20] and 10 µg/mL (≈ 28.5 µM) in data set [22]. The concentration for half-maximal inhibition (IC50) in data set [21] is reported as 3.2 10^-3mg/ml.

Usually MIC50 stands for the lowest concentration that inhibits either 50% of growth or 50% of the strains tested, depending on the study. For the compound `CO[C@H]1/C=C/O[C@@]2(C)Oc3c(C)c(O)c4c(O)c(c(/C=N/N5CCN(C)CC5)c(O)c4c3C2=O)NC(=O)/C(C)=C\C=C\[C@H](C)[C@H](O)[C@@H](C)[C@@H](O)[C@@H](C)[C@H](OC(C)=O)[C@@H]1C` [RIFAMPIN], in data set [23], the MIC50 was 0.5 µg/mL (≈ 0.608 µM).

As for `COC(=O)C1=C2Nc3c(OC)cccc3[C@]23CC[N+]2(C)C[C@H](C(C)=O)[C@H]1C[C@H]32` (stereo partly drawn), the IC50 in [24], in data set [25], in data set [26] and in data set [27] was 9.2 µM throughout.

Take `CC1(C)/C=C\N2C(=O)[C@]3(O)[C@H](O)CCN3C(=O)[C@@H]2Cc2c1[nH]c1ccccc21`: the Activity in data set [18] is on record as 36.5%.

On to `C=C1CC[C@@]23CC[C@@]45C(C2)[C@]4(CCN13)c1cc(OC)ccc1N5C(=O)OC`, for which the IC50 in data set [28] was 7.2 µg/mL (≈ 19.6 µM); in data set [29], 4.6 µg/mL (≈ 12.6 µM).

Take `COc1cc([C@H]2Oc3ccc4[nH]cc5c4c3[C@H]2C(=O)NCC5=O)ccc1O`: the mortality at 24 h, 10 ug/ml in data set [30] came to 90%.
